From patent US11753399B2, “Therapeutic compounds” (Gilead Sciences, Inc., priority 2018, dated 2023)

Experiments:
[1] = test system: HIV-IIIb; assay: Test A: Antiviral Assay in MT4 Cells; type: cell-based, HIV-1; conditions: Human immunodeficiency virus 1, MT4, 120 h, inhibition of virus-induced cell killing, MT-4 cells, HIV-IIIb, 5 days, values normalized to 100%
Summary of the method: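 MT-4 cells infected with HIV-IIIb at m.o.i. 0.003 for 1 hour, then added at 2000 cells per well to diluted compound. Incubated 5 days at 37° C. Cell viability read as CellTiter-Glo chemiluminescence after 10 min lysis at room temperature.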

[2] = test system: MT-4 cells; assay: Test B: Cytotoxicity Assay (same protocol as Test A, uninfected cells); type: cell-based; conditions: uninfected MT-4 cells, 5 days, CellTiter-Glo

SMILES: CC(C)(O)c1nnc(Nc2nn(CC(F)F)c3c(-c4ccc(C#CC(C)(C)S(=O)(=O)C5CC5)nc4[C@H](Cc4cc(F)cc(F)c4)NC(=O)Cn4nc(C(F)F)c5c4C(F)(F)[C@@H]4C[C@H]54)ccc(Cl)c23)o1 [Example 24]
- inhibition at 0.01 µM ([1]; from dose response curve at 0.01 μM (10 nM), read-out: % inhibition at 0.01 μM): 100%
- inhibition at 0.2 µM ([1]; from dose response curve at 0.20 μM (200 nM), read-out: % inhibition at 0.20 μM): 100%
- CC50 [2]: 9.07 µM
